Assay results published in patent US6603023B2 (priority 1996, dated 2003).
Several values for one entry are separate records, joined by “and”; a condition that tells them apart may be missing. Equal values may be shown once. Where a name gives a salt, the structure may show the parent alone. Marks after values point to notes of the source that are not given here.

Experiments:
[1] = Toxicity in normal nude mice; assay type: in vivo, athymic nude mice; conditions: for Number of mice died: QD × 4, i.p.; for decrease in lymphocytes: EpoB 0.6 mg/kg or dEpoB 25 mg/kg, QDx4, i.p., preliminary; for mice died / survived: desoxyepothilone B 25 mg/kg QDx4 i.p.; for mice died of toxicity: epothilone B 0.6 mg/kg QDx4 i.p.
Protocol: For in vivo studies, paclitaxel in Cremophor-EtOH was further diluted with DMSO as needed. Vinblastine sulfate (Velban) (Eli Lilly & Co. Indianapolis, Ind.), and doxorubicin or adriamycin HCl (DX or Adr) (Pharmacia, Columbus, Ohio) in saline were diluted with DMSO as needed. DMSO was used as a vehicle for epothilones. Each mouse received ≦40 μL DMSO in all experiments.
The toxicity of EpoB and dEpoB was compared in normal athymic nude mice on the daily i.p. schedule. EpoB at 0.6 mg/kg, QDX4, i.p. led to lethality in all eight mice. […] Similar leukopenia was found with paclitaxel. Some obstructive fecal mass in the large intestine was noted following Epo treatments in the preliminary study.

[2] = test system: Human Lymphoblastic Leukemia CCRF-CEM; test: CCRF-CEM xenograft in nude mice, i.v. 6 h infusion; assay type: in vivo; conditions: for Average Body Weight, Day 21: initial weight
CCRF-CEM/VBL = CCRF-CEM/VBL xenograft in nude mice, i.v. 6 h infusion; assay type: in vivo; conditions: for Lowest Average Tumor Size (T/C) / Tumor Disappearance: dEpoB 30 mg/kg Q2D x 5, Taxol 15 mg/kg Q2D x 5
Description: Treatment on days 19, 21, 23, 25, 27, 39, 41, 43, 45, 47 and 53.

[3] = test system: HT-29 Colon Adenocarcinoma; test: HT-29 xenograft; assay type: in vivo, nude mice; conditions: for Lowest Average Tumor Size (T/C) / Tumor Disappearance: dEpoB 30 mg/kg Q2D x 6, Taxol 15 mg/kg Q2D x 6
[4] = test system: human ovarian UL3-C tumor; test: UL3-C ovarian tumor xenograft; conditions: for Lowest Average Tumor Size (T/C) / Tumor Disappearance: dEpoB 30 mg/kg Q2D x 5, Taxol 15 mg/kg Q2D x 5; for Average Body Weight (change), Day 33 / Average Body Weight Change, Day 27 / Average Body Weight Change, Day 29 / Average Body Weight Change, Day 31 / Average Tumor Size (T/C), Day 27 / Average Tumor Size (T/C), Day 29 / Average Tumor Size (T/C), Day 31 / Average Tumor Size (T/C), Day 33 / Average Body Weight, Day 19: dEpoB 30, Taxol 20 mg/kg, i.v. infusions on day 19,21,23,25,27; for Average Body Weight, Day 19: initial weight
[5] = Hematology and blood chemistry toxicity in MX-1 bearing mice; conditions: day 30; dEpoB 25 mg/kg i.p. day 7-15 then 35 mg/kg day 17-25; Taxol 5 then 6 mg/kg; MX-1 bearing nude mice
DC-3F/ADII = test: SRB cytotoxicity, DC-3F/ADII; assay type: cell-based, hamster; conditions: Mesocricetus auratus, DC3F
In short: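 Hamster lung fibroblast DC-3F sublines selected with actinomycin D (ADII moderate, ADX very strong MDR), maintained under selecting agent in RPMI 1640-10% FBS at 37° C. Monolayers exposed to six to seven drug concentrations in duplicate, TCA-fixed, stained with 0.4% SRB; absorbance 570 nm, analyzed by median-effect plot.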

CCRF-CEM = test: Drug combination analysis (combination index, XTT, 72 h); assay type: cell-based; conditions: Homo sapiens, median-effect parameter, read-out: Dm (IC50)
[6] = CCRF/CEM Leukemia, dEpoB 30 mg/kg Q2D x 5, Taxol 15 mg/kg Q2D x 5
[7] = Dose DesoxyepoB 40, Taxol 20, i.v. infusion 6 hr on day 21,23,25,27
[8] = Table 26, Dose Q2D x 4: DesoxyepoB 40, Taxol 20

C/C1=C/C[C@@H](/C(C)=C/c2csc(C)n2)OC(=O)C[C@H](O)C(C)(C)C(=O)[C@H](C)[C@@H](O)[C@@H](C)CCC1 [Desoxyepothilone B, desoxyepothilone B]
Died ([1]; 25 mg/kg QD × 4, 6 mice): 0 | Disappearance Duration ([1]; 25 mg/kg QD × 4, 6 mice): 0 | Number of mice died ([1]; 25 mg/kg, 6 mice): 0 | decrease in lymphocytes [1]: 43% | body weight course ([1]; dEpoB 25 mg/kg daily i.p. for 4 days, listed as dEpoB): maintained approximately the same average body weight | body weight course ([1]; dEpoB 25 mg/kg daily i.p. for 4 days, listed as desoxyepothilone B): no reduction in average body weight | mice died / survived ([1]; 6 mice): all six mice survived | mice died / survived ([1]; 6 mice, listed as dEpoB): zero of six | Therapeutic effect Rank Order ([2]; CCRF-CEM, i.v. infusion): dEpoB ≈ Taxol ® | Lowest Average Tumor Size (T/C) [2, 6]: 0 T/C | Tumor Disappearance [2, 6]: 2/2 | Therapeutic Effects dEpoB vs Taxol ([2]; CCRF/CEM Leukemia, dEpoB 30 mg/kg Q2D x 5 vs Taxol 15 mg/kg Q2D x 5): ≅ | Therapeutic effect Rank Order (CCRF-CEM/VBL; CCRF-CEM/VBL, i.v. infusion): dEpoB >>> Taxol ® | Lowest Average Tumor Size (T/C) (CCRF-CEM/VBL; CCRF/VBL Leukemia): 0 T/C | Tumor Disappearance (CCRF-CEM/VBL; CCRF/VBL Leukemia): 2/2 | Therapeutic Effects dEpoB vs Taxol (CCRF-CEM/VBL; CCRF/VBL Leukemia, dEpoB 30 mg/kg Q2D x 5 vs Taxol 15 mg/kg Q2D x 5): >>> | Lowest Average Tumor Size (T/C) [3]: 0.02 T/C | Tumor Disappearance [3]: 0 | Therapeutic Effects dEpoB vs Taxol ([3]; dEpoB 30 mg/kg Q2D x 6 vs Taxol 15 mg/kg Q2D x 6): ≦ | Therapeutic effect Rank Order ([3]; i.v. infusion): Taxol ® ≧ dEpoB | Lowest Average Tumor Size (T/C) ([4]; UL3-C Ovary): 0.03 T/C | Tumor Disappearance ([4]; UL3-C Ovary): 0 | Therapeutic Effects dEpoB vs Taxol ([4]; UL3-C Ovary, dEpoB 30 mg/kg Q2D x 5 vs Taxol 15 mg/kg Q2D x 5): ≧ | Average Body Weight (change), Day 33 [4]: -2.7 g | Average Body Weight Change, Day 27 [4]: -1.5 g | Average Body Weight Change, Day 29 [4]: -4.0 g | Average Body Weight Change, Day 31 [4]: -3.6 g | Average Tumor Size (T/C), Day 27 [4]: 0.19 T/C | Average Tumor Size (T/C), Day 29 [4]: 0.13 T/C | Average Tumor Size (T/C), Day 31 [4]: 0.03 T/C | Average Tumor Size (T/C), Day 33 [4]: 0.03 T/C | Average Body Weight, Day 19 [4]: 30.0 g | GOT [5]: 296 U/L | GPT [5]: 55 (n = 3) U/L | WBC Lymph [5]: 48% | WBC Neutrophils [5]: 48% | WBC Total [5]: 11.8 10^3/mm^3

CC(=O)O[C@H]1C(=O)[C@@]2(C)[C@H]([C@H](OC(=O)c3ccccc3)[C@]3(O)C[C@H](OC(=O)[C@H](O)[C@@H](NC(=O)c4ccccc4)c4ccccc4)C(C)=C1C3(C)C)[C@]1(OC(C)=O)CO[C@@H]1C[C@@H]2O [Taxol ®, paclitaxel]
IC50 (DC-3F/ADII): 3200 nM | IC50 (CCRF-CEM): 1.09 nM | Tumor Disappearance [2, 6]: 2/2 | Average Body Weight Changes, Day 23 [2, 7]: -0.1 g | Average Body Weight Changes, Day 25 [2, 7]: -1.9 g | Average Body Weight Changes, Day 27 [2, 7]: -2.9 g | Average Body Weight Changes, Day 29 [2, 7]: -3.0 g | Average Body Weight Changes, Day 31 [2, 7]: -3.6 g | Average Body Weight Changes, Day 33 [2, 7]: -2.6 g | Average Body Weight Changes, Day 35 [2, 7]: -0.5 g | Average Body Weight Changes, Day 37 [2, 7]: +1.2 g | Average Body Weight Changes, Day 39 [2, 7]: +1.3 g | Average Body Weight Changes, Day 41 [2, 7]: +2.1 g | Average Tumor Size (T/C), Day 21 [2, 7]: 1.17 T/C | Average Tumor Size (T/C), Day 23 [2, 7]: 0.78 T/C | Average Tumor Size (T/C), Day 25 [2, 7]: 0.44 T/C | Average Tumor Size (T/C), Day 27 [2, 7]: 0.11 T/C | Average Tumor Size (T/C), Day 29 [2, 7]: 0 T/C | Average Tumor Size (T/C), Day 31 [2, 7]: 0 T/C | Average Tumor Size (T/C), Day 33 [2, 7]: 0 T/C | Average Tumor Size (T/C), Day 35 [2, 7]: 0 T/C | Proportion of Tumor Disappearance (n/total), Day 21 [2, 7]: 0/4 | Proportion of Tumor Disappearance (n/total), Day 23 [2, 7]: 0/4 | Proportion of Tumor Disappearance (n/total), Day 25 [2, 7]: 0/4 | Proportion of Tumor Disappearance (n/total), Day 27 [2, 7]: 1/4 | Proportion of Tumor Disappearance (n/total), Day 29 [2, 7]: 4/4 | Proportion of Tumor Disappearance (n/total), Day 31 [2, 7]: 4/4 | Proportion of Tumor Disappearance (n/total), Day 33 [2, 7]: 4/4 | Proportion of Tumor Disappearance (n/total), Day 35 [2, 7]: 1/4 | Proportion of Tumor Disappearance (n/total), Day 37 [2, 7]: 0/4 | Proportion of Tumor Disappearance (n/total), Day 39 [2, 7]: 0/4 | Proportion of Tumor Disappearance (n/total), Day 41 [2, 7]: 0.4 | Average Body Weight Change, Day 23 [2, 8]: -0.1 g | Average Body Weight Change, Day 25 [2, 8]: -1.9 g | Average Body Weight Change, Day 27 [2, 8]: -2.9 g | Average Body Weight Change, Day 29 [2, 8]: -3.0 g | Average Body Weight Change, Day 31 [2, 8]: -3.6 g | Average Tumor Size (T/C), Day 23 [2, 8]: 0.78 T/C | Average Tumor Size (T/C), Day 25 [2, 8]: 0.44 T/C | Average Tumor Size (T/C), Day 27 [2, 8]: 0.11 T/C | Average Tumor Size (T/C), Day 29 [2, 8]: 0 T/C | Average Tumor Size (T/C), Day 31 [2, 8]: 0 T/C | Tumor Disappearance [2, 8]: 4/4 | Average Body Weight, Day 21 [2, 8]: 29.0 g | Average Body Weight, Day 21 [2, 7]: 29.0 g | Lowest Average Tumor Size (T/C) (CCRF-CEM/VBL; CCRF/VBL Leukemia): 0.76 T/C | Tumor Disappearance (CCRF-CEM/VBL; CCRF/VBL Leukemia): 0 | Lowest Average Tumor Size (T/C) [3]: 0.01 T/C | Tumor Disappearance [3]: 0 | Lowest Average Tumor Size (T/C) ([4]; UL3-C Ovary): 0.04 T/C | Tumor Disappearance ([4]; UL3-C Ovary): 0 | Average Body Weight (change), Day 33 [4]: -2.7 g | Average Body Weight Change, Day 27 [4]: -2.9 g | Average Body Weight Change, Day 29 [4]: -3.3 g | Average Body Weight Change, Day 31 [4]: -2.4 g | Average Tumor Size (T/C), Day 27 [4]: 0.10 T/C | Average Tumor Size (T/C), Day 29 [4]: 0.08 T/C | Average Tumor Size (T/C), Day 31 [4]: 0.03 T/C | Average Tumor Size (T/C), Day 33 [4]: 0.04 T/C | Average Body Weight, Day 19 [4]: 31.3 g | GOT [5]: 438 U/L | GPT [5]: 79 (n = 5) U/L | WBC Lymph [5]: 48% | WBC Neutrophils [5]: 51% | WBC Total [5]: 10.9 10^3/mm^3

CC[C@]1(O)C[C@@H]2CN(CCc3c([nH]c4ccccc34)[C@@](C(=O)OC)(c3cc4c(cc3OC)N(C)[C@H]3[C@@](O)(C(=O)OC)[C@H](OC(C)=O)[C@]5(CC)C=CCN6CC[C@]43[C@@H]65)C2)C1 [Vinblastine, Vinblastine sulfate]
IC50 (DC-3F/ADII): 78.9 nM | IC50 (CCRF-CEM): 0.61 nM

C/C(=C\c1csc(C)n1)[C@@H]1C[C@@H]2O[C@]2(C)CCC[C@H](C)[C@H](O)[C@@H](C)C(=O)C(C)(C)[C@@H](O)CC(=O)O1 [Epothilone B, epothilone B]
Died ([1]; 0.6 mg/kg QD × 4, 8 mice): 8 | Disappearance Duration ([1]; 0.6 mg/kg QD × 4, 8 mice): 8 | Number of mice died ([1]; 0.6 mg/kg, 8 mice): 8* | body weight course ([1]; EpoB 0.6 mg/kg QDx4 i.p.): steady decreases in body weight until death | decrease in lymphocytes [1]: 43% | mice died of toxicity ([1]; 8 mice): all eight and 8 of 8 | mice died of toxicity ([1]; 8 mice, listed as EpoB): all eight | reduction in average body weight ([1]; epothilone B 0.6 mg/kg i.p. for 4 days): 33%
